Laboratory results: patent US6461997B1, “Triazole sulfones having herbicidal activity” (Monsanto Technology LLC, priority 1999, dated 2002)

Legend:
SORVU (shattercane) = experiment: Pre-emergence herbicidal activity, warm season; format: in vivo, Sorghum vulgare; conditions: GR80 = lowest tested rate (300, 100, 30, 10 g/ha) with 80% or greater inhibition; approx. 14 days after treating; 30/21° C.
Procedure, shortened: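 GR80 values derive from percent inhibition relative to untreated plants, read roughly 14 days after sowing and pre-emergence soil-surface treatment (compound in 50:50 acetone/water; rates typically 10, 30, 100, 300 g/ha). Warm-season weeds grew at 30/21° C day/night, cool-season ones at 18/13° C; an asterisk marks activity without reaching 80% at the highest rate.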

ABUTH (velvetleaf) = experiment: Pre-plant incorporated (PPI) herbicidal activity, warm season; format: in vivo, Abutilon theophrasti; conditions: for Percent inhibition ABUTH: PPI application
Method: (§1) In another set of tests, the pre-plant incorporated (PPI) activity of compounds of this invention was evaluated on the same species as for the pre-emergence tests described above. In the PPI tests the following procedure, designed to simulate PPI application, was used.
(§2) A pre-prepared topsoil mixture (described above) was placed in a pot and compacted to a depth of 1.0 to 1.25 cm from the top of the pot. Seeds of each of several monocotyledonous and dicotyledonous annual plant species were placed on top of the soil. A sufficient quantity of soil to cover the seeds and level fill the pot was weighed into an open container. A known amount of the test compound was dissolved or suspended in an organic solvent and applied by spraying to this cover soil. The cover soil was thoroughly mixed to distribute the test compound throughout the cover soil, and was then applied as a cover layer over the seeds. Untreated soil was used as a cover layer for control pots. After treatment the plants were placed in a greenhouse where they received 0.64 cm of overhead irrigation. All subsequent watering consisted of a light overhead mist and/or subirrigation as needed for germination and growth. Tables 9 and 10 below relate to warm season plant species which were placed after pre-emergence treatment in a greenhouse with a 30/21° C. day/night temperature regime. Tables 11 and 12 below relates to cool season plant species placed after pre-emergence treatment in a greenhouse or growth chamber with an 18/13° C. day/night temperature regime. Only the compounds of Examples 1, 6, 8, 11, 13 and 15-20 were included in PPI tests.
(§3) Approximately 14 days after planting and treating, the plants were observed and herbicidal efficacy recorded as percent inhibition by comparison with untreated plants.

[1] = test system: GALAP (catchweed bedstraw); experiment: Pre-plant incorporated (PPI) herbicidal activity, cool season; format: in vivo, Galium aparine; conditions: for Percent inhibition GALAP: weed, PPI application; for PPI activity GR80, GALAP: pre-plant incorporated, lowest tested rate with 80% or greater inhibition, about 14 days
Method: as §1, §2, §3

soybean (GLYMX) = experiment: Selectivity test, PPI, warm season crop; format: in vivo, Glycine max; conditions: PPI application
Method: as §2, §3
Additional pre-emergence and PPI tests were conducted by the procedures described above, on warm and cool season weed species in the presence of crop species, to assess herbicidal selectivity. Crop species included in warm season tests were corn (Zea mays, ZEAMX), rice (Oryza sativa, ORYSA) and soybean (Glycine max, GLYMX). Crop species included in cool season tests were wheat (Triticum aestivum, TRZAW), barley (Hordeunm vulgare, HORVX) and oilseed rape (Brassica napus, BRSNS).
Tables 15 and 16 relate to pre-emergence and PPI tests respectively on warm season species. Table 17 relates to pre-emergence tests on cool season species.

ALOMY (blackgrass) = experiment: Post-emergence herbicidal activity, cool season; format: in vivo, Alopecurus myosuroides; conditions: abraded plants sprayed at 300, 100, 30 and 10 g/ha; about 14 days after treatment
Method: In another set of tests, the post-emergence activity of compounds of this invention was evaluated on the cool season species listed above. The following procedure was used.
A pre-prepared topsoil mixture (described above) was placed in a pot and compacted to a depth of 1.0 to 1.25 cm from the top of the pot. Seeds of each of several monocotyledonous and dicotyledonous annual plant species were placed on top of the soil. The seeds were covered with a mixture of 50% topsoil and 50% Rediearth™ in sufficient quantity to level-fill the pots. The pots were then placed on a greenhouse bench and subirrigated as needed.
When plants growing from the seeds had emerged and reached a suitable growth stage for post-emergence treatment, typically 9 to 14 days after planting, above-ground parts of the plants were subjected to a pre-treatment involving abrasion to create greater opportunity for foliar uptake of subsequently applied compounds. Abrasion was performed using garnet 200w particles applied with a Sears Craftsman hand-held sandblaster operated at approximately 850 kPa (50 psig) pressure.
A known amount of each test compound dissolved or suspended in an appropriate organic solvent was diluted with a 50:50 mix of acetone and water and applied to the plants by spraying with a standard spray nozzle in a spray volume of […] at a spray pressure of 511 kPa (30 psig). Only the compounds of Examples 1, 8-15 and 17-22 were included in post-emergence tests. Application rates for these compounds were 300, 100, 30 and 10 g/ha. Control plants were abraded but not sprayed.
After treatment the plants were placed in a greenhouse with an 18/13° C. day/night temperature regime and were subsequently watered as needed for growth. Approximately 14 days after treatment, the plants were observed and herbicidal efficacy recorded as percent inhibition by comparison with control plants. GR80 values were assigned for each compound as described above for the pre-emergence tests.

SMILES | Pre-emergence activity (GR80) SORVU (SORVU (shattercane)) | Percent inhibition ABUTH (ABUTH (velvetleaf); 30 g/ha) [%] | Percent inhibition ABUTH (ABUTH (velvetleaf); 100 g/ha) [%] | Percent inhibition ABUTH (ABUTH (velvetleaf); 300 g/ha) [%] | Percent inhibition ABUTH (ABUTH (velvetleaf); 900 g/ha) [%] | Percent inhibition GALAP ([1]; 30 g/ha) [%] | Percent inhibition GALAP ([1]; 100 g/ha) [%] | Percent inhibition GALAP ([1]; 300 g/ha) [%] | Percent inhibition GALAP ([1]; 900 g/ha) [%] | Percent inhibition GLYMX (soybean (GLYMX); 30 g/ha) [%] | Percent inhibition GLYMX (soybean (GLYMX); 100 g/ha) [%] | Percent inhibition GLYMX (soybean (GLYMX); 300 g/ha) [%] | Percent inhibition GLYMX (soybean (GLYMX); 900 g/ha) [%] | PPI activity GR80, GALAP [1] [g/ha] | Percent inhibition ABUTH (ABUTH (velvetleaf); 10 g/ha) [%] | Percent inhibition GALAP ([1]; 10 g/ha) [%] | Post-emergence activity GR80, ALOMY (ALOMY (blackgrass)) | Percent inhibition GLYMX (soybean (GLYMX); 10 g/ha) [%] | PPI activity (GR80) ABUTH (ABUTH (velvetleaf); pre-plant incorporated, GR80 = lowest tested rate with 80% or greater inhibition, approx. 14 days after treating, 30/21° C.) [g/ha]
CCN(CC)C(=O)n1cnc(S(=O)(=O)C(F)(F)F)n1 [Example 2] | 300 g/ha | 0 | 0 | 20 | 75 | 60 | 100 | 100 | 100 | 0 | 0 | 10 | 20 |  |  |  |  |  | 
CCN(CC)C(=O)n1cnc(S(=O)(=O)C(F)(F)Cl)n1 [Example 3] | 100 g/ha | 0 | 0 | 30 | 60 | 100 | 100 | 100 | 100 | 0 | 0 | 0 | 15 |  |  |  |  |  | 
CCN(CC)C(=O)n1cnc(S(=O)(=O)C(F)(F)C(F)(F)Br)n1 [Example 4] | * (activity observed, at least at highest rate, but <80% inhibition) | 0 | 0 | 20 | 70 | 75 | 100 | 100 | 100 | 0 | 0 | 0 | 10 |  |  |  |  |  | 
CCN(CC)C(=O)n1cnc(S(=O)(=O)C(F)(F)C(=O)c2ccccc2)n1 [Example 6] | * (activity observed, at least at highest rate, but <80% inhibition) |  |  |  |  |  |  |  |  |  |  |  |  | 100 |  |  |  |  | 
CCN(CC)C(=O)n1cnc(S(=O)(=O)C(F)(F)SCc2ccccc2)n1 [Example 10] |  | 0 | 0 | 30 | 50 | 0 | 80 | 50 | 100 | 0 | 0 | 10 | 70 |  | 0 | 0 | [empty] | 0 | 
CCN(CC)C(=O)n1cnc(S(=O)(=O)C(F)(F)C(F)(F)SC)n1 [Example 14] | * (activity observed, at least at highest rate, but <80% inhibition) |  |  |  |  |  |  |  |  |  |  |  |  |  |  |  | [empty] |  | 
CCN(CC)C(=O)n1cnc(S(=O)(=O)C(F)(F)C(F)F)n1 [Example 16] | 100 g/ha | 0 | 0 | 30 | 95 | 20 | 100 | 100 | 100 | 0 | 10 | 10 | 80 | 100 | 0 | 0 |  | 0 | 100
